Source: BindingDB's records for patent US20240148821 (Chugai Seiyaku Kabushiki Kaisha, 2024)
Numbered stars: 1 amine (or outer) side, 2 acyl side, 3 side chain; on linkers, the order of the positions; unused ones are H or OH. Bridge positions count the residues as written; N and C are the ends. Square brackets hold non-standard residues; d marks the D form. Peptide text beside a SMILES is read from it. * marks the point of attachment. ξ: configuration not given here. hPhe(3-Cl-4-CF3) = N[C@@H](CCc1ccc(C(F)(F)F)c(Cl)c1)C(=O)O; hPhe(3-F,4-CF3) = N[C@@H](CCc1ccc(C(F)(F)F)c(F)c1)C(=O)O; NMeGly(COCH2cHex) = CN[C@H](C(=O)O)C(=O)CC1CCCCC1; X63 = O=C([C@H](CCc1ccc(C(F)F)c(F)c1)N[*:1])[*:2]; X134 = CN([C@@H](Cc1ccc(C#N)nc1)C(=O)[*:2])[*:1]; Piperazinyl(4-(3-oxetanyl)) = C1OCC1N1CCN(*)CC1; X55 = Cn1ccc2ccc(CC[C@H](N[*:1])C(=O)[*:2])cc21; NMeTyr(3-F) = CN[C@@H](Cc1ccc(O)c(F)c1)C(=O)O; X44 = O=C([C@H](CCc1ccc2cccnc2c1)N[*:1])[*:2]; X101 = CN([C@@H](CCc1cscn1)C(=O)[*:2])[*:1]; NMedβ3hAla = C[C@H](CC(=O)[*:2])N(C)[*:1]; NMeGly(cPent) = CN[C@H](C(=O)O)C1CCCC1; NMehCha = CN[C@@H](CCC1CCCCC1)C(=O)O; NMeCha = CN[C@@H](CC1CCCCC1)C(=O)O; cisHyp = O=C(O)[C@@H]1C[C@H](O)CN1; ξPro(4,4-F2) = O=C(O)C1CC(F)(F)CN1; Hyp = O=C(O)[C@@H]1C[C@@H](O)CN1; NMeChg = CN[C@H](C(=O)O)C1CCCCC1; NMeI = CC[C@H](C)[C@H](NC)C(=O)O; N(CH2CH2)2CF2 = FC1(F)CCN(*)CC1; NMeD = CN[C@@H](CC(=O)O)C(=O)O; NMeL = CN[C@@H](CC(C)C)C(=O)O; Cba = N[C@@H](CC1CCC1)C(=O)O; NMeV = CN[C@H](C(=O)O)C(C)C; d(β3hA) = C[C@@H](N)CC(=O)O; Ac7c = NC1(C(=O)O)CCCCCC1; NMeA = CN[C@@H](C)C(=O)O; Piperidide = C1CCN(*)CC1; Pyrrolidide = C1CCN(*)C1; X57 = FC(F)Oc1ccc(C*)cc1; Ac5c = NC1(C(=O)O)CCCC1; Aze = O=C(O)[C@@H]1CCN1; Nlys = NCCCCNCC(=O)O; ξAze = O=C(O)C1CCN1; ξP = O=C(O)C1CCCN1; Sar = CNCC(=O)O

What follows are compounds tested against GTPase KRas (G12D) and Son of Sevenless Homolog 1 (SOS) (Homo sapiens, UniProt P01116, G12D) (assay: AlphaScreen Assay).
Chain of GTPase KRas (G12D) and Son of Sevenless Homolog 1 (SOS) (P01116 whole entry G12D): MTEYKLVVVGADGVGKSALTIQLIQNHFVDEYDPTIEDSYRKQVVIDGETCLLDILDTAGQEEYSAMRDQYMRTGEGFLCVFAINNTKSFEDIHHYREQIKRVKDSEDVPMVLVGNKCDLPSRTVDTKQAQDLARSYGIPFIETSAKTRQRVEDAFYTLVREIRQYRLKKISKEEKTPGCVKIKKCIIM
Chain of GTPase KRas (G12D) and Son of Sevenless Homolog 1 (SOS) (Q07889 whole entry, further chain): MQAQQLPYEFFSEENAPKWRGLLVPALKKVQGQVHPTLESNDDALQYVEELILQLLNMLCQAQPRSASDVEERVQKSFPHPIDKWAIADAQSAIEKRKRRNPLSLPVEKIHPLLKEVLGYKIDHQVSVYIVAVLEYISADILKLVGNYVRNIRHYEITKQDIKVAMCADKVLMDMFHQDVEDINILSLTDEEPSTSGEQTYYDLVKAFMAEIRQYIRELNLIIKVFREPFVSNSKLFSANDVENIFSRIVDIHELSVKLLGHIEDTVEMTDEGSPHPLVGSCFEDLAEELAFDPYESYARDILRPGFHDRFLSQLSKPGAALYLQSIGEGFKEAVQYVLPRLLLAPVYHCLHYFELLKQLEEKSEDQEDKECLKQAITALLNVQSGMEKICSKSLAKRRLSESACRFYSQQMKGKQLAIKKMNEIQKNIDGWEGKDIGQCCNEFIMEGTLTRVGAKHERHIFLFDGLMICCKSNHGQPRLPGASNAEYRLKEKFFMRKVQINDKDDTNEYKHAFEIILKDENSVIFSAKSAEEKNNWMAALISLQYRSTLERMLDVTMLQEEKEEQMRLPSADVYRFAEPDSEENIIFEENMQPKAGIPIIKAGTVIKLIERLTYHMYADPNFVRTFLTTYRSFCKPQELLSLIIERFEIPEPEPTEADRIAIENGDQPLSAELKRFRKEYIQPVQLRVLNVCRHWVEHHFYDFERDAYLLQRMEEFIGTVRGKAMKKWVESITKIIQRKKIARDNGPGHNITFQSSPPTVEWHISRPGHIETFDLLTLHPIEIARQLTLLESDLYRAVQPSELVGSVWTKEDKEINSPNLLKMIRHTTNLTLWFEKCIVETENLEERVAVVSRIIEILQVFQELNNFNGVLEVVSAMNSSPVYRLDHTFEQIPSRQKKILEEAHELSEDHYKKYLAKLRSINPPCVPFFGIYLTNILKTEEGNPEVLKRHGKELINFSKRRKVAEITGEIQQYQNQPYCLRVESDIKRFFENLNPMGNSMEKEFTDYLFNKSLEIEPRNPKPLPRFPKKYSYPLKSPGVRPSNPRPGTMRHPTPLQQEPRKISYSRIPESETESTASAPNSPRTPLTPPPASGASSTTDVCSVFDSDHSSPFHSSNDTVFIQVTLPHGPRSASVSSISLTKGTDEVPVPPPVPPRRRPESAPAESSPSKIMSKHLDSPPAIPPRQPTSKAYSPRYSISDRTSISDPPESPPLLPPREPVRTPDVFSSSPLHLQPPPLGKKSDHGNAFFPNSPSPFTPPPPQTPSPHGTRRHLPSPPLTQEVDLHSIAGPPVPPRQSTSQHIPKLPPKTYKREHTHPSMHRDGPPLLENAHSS
Procedure: Protein-protein interaction inhibition (PPI) between Kras and SOS1 was measured by energy transfer from nickel-conjugated donor beads to streptavidin-conjugated acceptor beads using biotin-tagged human Kras expressed in E. coli and loaded with GDP after purification and His-tagged human SOS1 enzyme. This measurement utilizes the phenomenon in which donor beads are irradiated with light at 680 nm, such that energy is transferred to acceptor beads through singlet oxygen and light at 520-620 nm is detected from the acceptor beads.

Row | IC50 | Compound
1 | 6.1 nM | CC[C@H](C)[C@@H]1NC(=O)[C@H](CC(C)C)N(C)C(=O)C[C@@H](C(=O)N2CCCCC2)N(C)C(=O)[C@H](C2CCCCC2)N(C)C(=O)C2(CCCC2)NC(=O)[C@H](Cc2ccc(C#N)nc2)N(C)C(=O)[C@H](CCc2ccc(C(F)(F)F)c(Cl)c2)NC(=O)CN(C)C(=O)[C@H](CC2CCCCC2)N(C)C(=O)CN(C)C(=O)CN(C)C1=O [US20240148821, Compound 2169] ([NMeL]I[Sar][Sar][NMeCha][Sar][hPhe(3-Cl-4-CF3)][X134][Ac5c][NMeChg][NMeD]-Piperidide; lactam N-11)
2 | 7.5 nM | CC[C@H](C)[C@@H]1NC(=O)[C@H](CC(C)C)N(C)C(=O)C[C@@H](C(=O)N2CCCCC2)N(C)C(=O)[C@H](C2CCCCC2)N(C)C(=O)C2(CCCC2)NC(=O)CN(CCCCN)C(=O)[C@H](CCc2ccc(C(F)(F)F)c(Cl)c2)NC(=O)CN(C)C(=O)[C@H](CC2CCCCC2)N(C)C(=O)CN(C)C(=O)CN(C)C1=O [US20240148821, Compound 2186] ([NMeL]I[Sar][Sar][NMeCha][Sar][hPhe(3-Cl-4-CF3)][Nlys][Ac5c][NMeChg][NMeD]-Piperidide; lactam N-11)
3 | 4.5 nM | CCO[C@H]1C[C@H]2C(=O)NC3(CCCC3)C(=O)N(C)[C@@H](CC(C)C)C(=O)N(C)[C@H](C(=O)N3CCCCC3)CC(=O)N(C)[C@@H](CC(C)C)C(=O)N[C@@H]([C@@H](C)CC)C(=O)N(C)CC(=O)N(C)CC(=O)N(C)[C@@H](CC3CCCCC3)C(=O)N(C)CC(=O)N[C@@H](CCc3ccc(C(F)(F)F)c(F)c3)C(=O)N2C1 [US20240148821, Compound 2127] ([NMeL]I[Sar][Sar][NMeCha][Sar][hPhe(3-F,4-CF3)][cisHyp](Et)[Ac5c][NMeL][NMeD]-Piperidide; lactam N-11)
4 | 69 nM | CC[C@H](C)[C@@H]1NC(=O)[C@H](CC(C)C)N(C)C(=O)C[C@@H](C(=O)N2CCCCC2)N(C)C(=O)[C@H](C2CCCCC2)N(C)C(=O)C2(CCCC2)NC(=O)[C@H](Cc2ccc(O)c(F)c2)N(C)C(=O)[C@H](CCc2ccc(C(F)(F)F)c(Cl)c2)NC(=O)CN(C)C(=O)[C@H](CC2CCCCC2)N(C)C(=O)CN(C)C(=O)CN(C)C1=O [US20240148821, Compound 2170] ([NMeL]I[Sar][Sar][NMeCha][Sar][hPhe(3-Cl-4-CF3)][NMeTyr(3-F)][Ac5c][NMeChg][NMeD]-Piperidide; lactam N-11)
5 | 4.8 nM | CC[C@H](C)[C@@H]1NC(=O)[C@H](CC(C)C)N(C)C(=O)C[C@@H](C(=O)N2CCCCC2)N(C)C(=O)[C@H](C2CCCCC2)N(C)C(=O)C2(CCCC2)NC(=O)[C@H](CCc2cscn2)N(C)C(=O)[C@H](CCc2ccc(C(F)(F)F)c(Cl)c2)NC(=O)CN(C)C(=O)[C@H](CC2CCCCC2)N(C)C(=O)CN(C)C(=O)CN(C)C1=O [US20240148821, Compound 500] ([NMeL]I[Sar][Sar][NMeCha][Sar][hPhe(3-Cl-4-CF3)][X101][Ac5c][NMeChg][NMeD]-Piperidide; lactam N-11)
6 | 10 nM | CC(C)C[C@H]1C(=O)N[C@@H](CC2CCC2)C(=O)N(C)CC(=O)N(C)CC(=O)N(C)[C@@H](CC2CCCCC2)C(=O)N(C)CC(=O)N[C@@H](CCc2ccc(C(F)(F)F)c(Cl)c2)C(=O)N2CCCC2C(=O)NC2(CCCCCC2)C(=O)N(C)[C@@H](C(C)C)C(=O)N(C)[C@H](C(=O)N2CCCCC2)CC(=O)N1C (stereo partly drawn) [US20240148821, Compound 451] ([NMeL][Cba][Sar][Sar][NMeCha][Sar][hPhe(3-Cl-4-CF3)][ξP][Ac7c][NMeV][NMeD]-Piperidide; lactam N-11)
7 | 2.9 nM | CC[C@H](C)[C@@H]1NC(=O)[C@H](CC(C)C)N(C)C(=O)C[C@@H](C(=O)N2CCCCC2)N(C)C(=O)[C@H](C2CCCC2)N(C)C(=O)C2(CCCC2)NC(=O)[C@@H]2CCCN2C(=O)[C@H](CCc2ccc(C(F)F)c(F)c2)NC(=O)CN(C)C(=O)[C@H](CC2CCCCC2)N(C)C(=O)[C@@H]2CCN2C(=O)[C@H](C)N(C)C1=O [US20240148821, Compound 2085] ([NMeL]I[NMeA][Aze][NMeCha][Sar][X63]P[Ac5c][NMeGly(cPent)][NMeD]-Piperidide; lactam N-11)
8 | 4 nM | CC[C@H](C)[C@@H]1NC(=O)[C@H](CC(C)C)N(C)C(=O)C[C@@H](C)N(C)C(=O)[C@H](C2CCCC2)N(C)C(=O)C2(CCCC2)NC(=O)C2CC(F)(F)CN2C(=O)[C@H](CCc2ccc(C(F)(F)F)c(Cl)c2)NC(=O)CN(C)C(=O)[C@H](CCC2CCCCC2)N(C)C(=O)CN(C)C(=O)CN(C)C1=O (stereo partly drawn) [US20240148821, Compound 107] (cyclo([Ac5c][NMeGly(cPent)][NMedβ3hAla][NMeL]I[Sar][Sar][NMehCha][Sar][hPhe(3-Cl-4-CF3)][ξPro(4,4-F2)]))

Continued, compound first:

Row | Compound | IC50
9 | CC[C@H](C)[C@@H]1NC(=O)[C@H](CC(C)C)N(C)C(=O)C[C@@H](C)NC(=O)[C@H](CC(C)C)N(C)C(=O)C(C)(C)NC(=O)[C@H](CC(C)C)N(C)C(=O)[C@H](CCc2cc(F)c(C(F)(F)F)c(F)c2)NC(=O)CN(C)C(=O)[C@H](C(=O)CC2CCCCC2)N(C)C(=O)CN(C)C(=O)CN(C)C1=O [US20240148821, Compound 119] | 39 nM
10 | CC[C@H](C)[C@@H]1NC(=O)[C@H](CC(C)C)N(C)C(=O)C[C@@H](C(=O)N2CCN(C3COC3)CC2)NC(=O)[C@H]([C@@H](C)CC)N(C)C(=O)C2(CCCC2)NC(=O)C2CCCN2C(=O)[C@H](CCc2ccc(C(F)(F)F)c(Cl)c2)NC(=O)CN(C)C(=O)[C@H](C(=O)CC2CCCCC2)N(C)C(=O)CN(C)C(=O)CN(C)C1=O (stereo partly drawn) [US20240148821, Compound 1191] ([NMeL]I[Sar][Sar][NMeGly(COCH2cHex)][Sar][hPhe(3-Cl-4-CF3)][ξP][Ac5c][NMeI]D-{Piperazinyl(4-(3-oxetanyl))}; lactam N-11) | 6.7 nM
11 | CC[C@H](C)[C@@H]1NC(=O)[C@H](CC(C)C)N(C)C(=O)C[C@@H](C(=O)N2CCCCC2)N(C)C(=O)[C@H](CC(C)C)N(C)C(=O)C2(CCCC2)NC(=O)[C@@H]2C[C@H](OCc3ccc(OC(F)F)cc3)CN2C(=O)[C@H](CCc2ccc(C(F)(F)F)c(F)c2)NC(=O)CN(C)C(=O)[C@H](CC2CCCCC2)N(C)C(=O)CN(C)C(=O)CN(C)C1=O [US20240148821, Compound 2135] ([NMeL]I[Sar][Sar][NMeCha][Sar][hPhe(3-F,4-CF3)][cisHyp](X57)[Ac5c][NMeL][NMeD]-Piperidide; lactam N-11) | 88 nM
12 | CC[C@H](C)[C@@H]1NC(=O)[C@H](CC(C)C)N(C)C(=O)C[C@@H](C)NC(=O)[C@H](CC(C)C)N(C)C(=O)C2(CCCC2)NC(=O)[C@@H]2C[C@@H](O)CN2C(=O)[C@H](CCc2ccc(C(F)(F)F)c(F)c2)NC(=O)CN(C)C(=O)[C@H](CC2CCCCC2)N(C)C(=O)CN(C)C(=O)CN(C)C1=O [US20240148821, Compound 1483] (cyclo([Ac5c][NMeL][d(β3hA)][NMeL]I[Sar][Sar][NMeCha][Sar][hPhe(3-F,4-CF3)][Hyp])) | 34 nM
13 | CC[C@H](C)[C@@H]1NC(=O)[C@H](CC(C)C)N(C)C(=O)C[C@@H](C(=O)N2CCCCC2)N(C)C(=O)[C@H](C2CCCC2)N(C)C(=O)C2(CCCC2)NC(=O)[C@@H]2CCCN2C(=O)[C@H](CCc2ccc3ccn(C)c3c2)NC(=O)CN(C)C(=O)[C@H](CC2CCCCC2)N(C)C(=O)[C@@H]2CCN2C(=O)[C@H](C)N(C)C1=O [US20240148821, Compound 2065] ([NMeL]I[NMeA][Aze][NMeCha][Sar][X55]P[Ac5c][NMeGly(cPent)][NMeD]-Piperidide; lactam N-11) | 16 nM
14 | CC[C@H](C)[C@@H]1NC(=O)[C@H](CC(C)C)N(C)C(=O)C[C@@H](C(=O)N2CCCCC2)N(C)C(=O)[C@H](CC(C)C)N(C)C(=O)C2(CCCC2)NC(=O)[C@@H]2C[C@@H](OCc3ccc(OC(F)F)cc3)CN2C(=O)[C@H](CCc2ccc(C(F)(F)F)c(F)c2)NC(=O)CN(C)C(=O)[C@H](CC2CCCCC2)N(C)C(=O)CN(C)C(=O)CN(C)C1=O [US20240148821, Compound 2128] ([NMeL]I[Sar][Sar][NMeCha][Sar][hPhe(3-F,4-CF3)][Hyp](X57)[Ac5c][NMeL][NMeD]-Piperidide; lactam N-11) | 15 nM
15 | CC[C@H](C)[C@@H]1NC(=O)[C@H](CC(C)C)N(C)C(=O)C[C@@H](C(=O)N2CCCCC2)N(C)C(=O)[C@H](C2CCCC2)N(C)C(=O)C2(CCCC2)NC(=O)[C@@H]2CCCN2C(=O)[C@H](CCc2ccc3cccnc3c2)NC(=O)CN(C)C(=O)[C@H](CC2CCCCC2)N(C)C(=O)[C@@H]2CCN2C(=O)[C@H](C)N(C)C1=O [US20240148821, Compound 2077] ([NMeL]I[NMeA][Aze][NMeCha][Sar][X44]P[Ac5c][NMeGly(cPent)][NMeD]-Piperidide; lactam N-11) | 47 nM
16 | C#CCC[C@H]1C(=O)N[C@@H]([C@@H](C)CC)C(=O)N(C)CC(=O)N(C)CC(=O)N(C)[C@@H](CCc2ccc(I)cc2)C(=O)N(C)CC(=O)N[C@@H](CCc2ccc(C(F)(F)F)c(Cl)c2)C(=O)N2CCCC2C(=O)NC2(CCCC2)C(=O)N(C)[C@@H](C2CCCCC2)C(=O)N[C@H](C)CC(=O)N1C (stereo partly drawn) [US20240148821, Compound 300] | 9.5 nM
17 | CC[C@H](C)[C@@H]1NC(=O)[C@H](CC(C)C)N(C)C(=O)C[C@@H](C(=O)N2CCCC2)N(C)C(=O)[C@H](C2CCCC2)N(C)C(=O)C2(CCCC2)NC(=O)[C@H](CC(=O)N2CCC(F)(F)CC2)N(C)C(=O)[C@H](CCc2ccc(C(F)(F)F)c(Cl)c2)NC(=O)CN(C)C(=O)[C@H](CCC2CCCCC2)N(C)C(=O)C2CCN2C(=O)[C@H](C)N(C)C1=O (stereo partly drawn) [US20240148821, Compound 26] ([NMeL]I[NMeA][ξAze][NMehCha][Sar][hPhe(3-Cl-4-CF3)][NMeD](N(CH2CH2)2CF2)[Ac5c][NMeGly(cPent)][NMeD]-Pyrrolidide; lactam N-11) | 4.3 nM
18 | CC(C)C[C@H]1C(=O)N[C@@H](C2CC2)C(=O)N(C)CC(=O)N(C)CC(=O)N(C)[C@@H](CCC2CCCCC2)C(=O)N(C)CC(=O)N[C@@H](CCc2ccc(C(F)(F)F)c(Cl)c2)C(=O)N2CCCC2C(=O)NC2(CCCC2)C(=O)N(C)[C@@H](C(C)C)C(=O)N[C@H](C)CC(=O)N1C (stereo partly drawn) [US20240148821, Compound 101] | 160 nM
